Results on 7 compounds are retold here after patent publication US12616761B2, “CXCR4-targeting compounds” (PROVINCIAL HEALTH SERVICES AUTHORITY, priority 2020, dated 2026).

In test [1] the target is T1, CXCR4 (Homo sapiens, UniProt P61073).
T1 construct: expressed in transfected cells; host or cells: CHO:CXCR4 cells (gift from Drs. David McDermott and Xiaoyuan Chen, NIH)
Kind of test: Competitive binding assay: [125I]SDF-1α displacement on CHO:CXCR4 cells. Particulars: [125I]SDF-1α competition on CHO:CXCR4 cells; given as ranges; read-out: IC50 (nM), Binding Affinity to CXCR4. As to the method:
The Z138 mantle cell lymphoma cell line was given by Dr. Christian Steidl (BC Cancer) as a gift. The CHO:CXCR4 cell line was given by Drs. David McDermott and Xiaoyuan Chen (National Institutes of Health) as a gift. The cell line was cultured in a 5% CO2 atmosphere at 37° C. in a humidified incubator. The Z138 cells were incubated with IMDM medium (Life Technologies Corporations) and the CHO:CXCR4 cells were incubated with F12K medium (Life Technologies Corporations), both of which were supplemented with 10% fetal bovine serum (Sigma-Aldrich), 100 I.U./mL penicillin, and 100 μg/mL streptomycin (Penicillin-Streptomycin Solution).
CHO:CXCR4 cells were seeded at a density of 1×10^5 cells/well in 24-well poly-D-lysine coated plates (Corning BioCoat) and incubated with [^1251]SDF-1α (0.01 nM, PerkinElmer) and competing nonradioactive ligands ([…]). The cells, radioligand, and competing peptides were incubated for 1 h at 27° C. with moderate shaking. Following the incubation period, the supernatant was aspirated, followed by three washes with 1 mL of ice-cold PBS. Cells were harvested with 200 μL of trypsin and counted on a y counter. Data were plotted in GraphPad Prism 7 to determine IC50 values (GraphPad Software, Inc., La Jolla, CA). The values are reported as mean±standard deviation.

The test system of test [2] is non-Hodgkin lymphoma, renal cell carcinoma, lung cancer, colorectal cancer, and breast cancer xenograft models. Particulars: colorectal and breast cancer xenografts; cited from earlier work.
Test [3] deals with small cell lung cancer. Particulars: small cell lung cancer patients; cited from earlier work.
In test [4] the target is T1, CXCR4. Particulars: read-out: IC50, block of SDF-1α binding to CXCR4; cited from earlier work.

Like-named read-outs stand apart in the source and are kept apart here. Positions of bridges follow the written chain, without caps; N, C: chain ends. Non-standard residues stand in square brackets, D forms with d. Residues, ends and D or L forms follow the SMILES beside them. 2Nal = N[C@@H](Cc1ccc2ccccc2c1)C(=O)O; Lys(iPr) = CC(C)NCCCC[C@H](N)C(=O)O; hTyr = N[C@@H](CCc1ccc(O)cc1)C(=O)O

T1 sequence (P61073 whole entry): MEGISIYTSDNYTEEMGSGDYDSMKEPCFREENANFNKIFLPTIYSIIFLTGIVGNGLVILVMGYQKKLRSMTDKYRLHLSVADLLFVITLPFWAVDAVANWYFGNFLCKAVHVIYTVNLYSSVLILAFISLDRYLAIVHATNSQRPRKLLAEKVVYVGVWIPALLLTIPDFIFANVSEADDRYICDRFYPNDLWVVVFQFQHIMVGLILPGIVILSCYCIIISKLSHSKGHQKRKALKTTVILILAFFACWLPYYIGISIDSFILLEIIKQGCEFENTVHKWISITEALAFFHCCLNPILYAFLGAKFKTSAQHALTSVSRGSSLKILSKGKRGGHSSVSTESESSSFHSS

In the case of `CC(=O)NCCCC[C@@H]1NC(=O)CC[C@H](C(=O)N[C@@H](CCCCNC(C)C)C(N)=O)NC(=O)[C@@H](C)NC(=O)[C@H](Cc2ccc3ccccc3c2)NC(=O)[C@@H](CCCNC(=N)N)NC(=O)[C@H](CCCCNC(C)C)NC(=O)[C@H](CCC(N)=O)NC1=O` [cyclo[Lys(Ac)-Gln-Lys(iPr)-D-Arg-2Nal-D-Ala-D-Glu]-Lys(iPr)] (K(Ac)Q[Lys(iPr)][dR][2Nal][dA][dE][Lys(iPr)]-NH2; lactam N-7), in test [1], the IC50 (commonly the concentration at which inhibition is half-maximal) was in the range of 10 to 50 nM.
As for `CC(=O)NCCCC[C@@H]1NC(=O)CC[C@H](C(=O)N[C@@H](CCCCNC(C)C)C(N)=O)NC(=O)[C@@H](C)NC(=O)[C@H](Cc2ccc3ccccc3c2)NC(=O)[C@@H](CCCNC(=N)N)NC(=O)[C@H](CCCCNC(C)C)NC(=O)[C@H](CCC(=O)O)NC1=O` [cyclo[Lys(Ac)-Glu-Lys(iPr)-D-Arg-2Nal-D-Ala-D-Glu]-Lys(iPr)] (K(Ac)E[Lys(iPr)][dR][2Nal][dA][dE][Lys(iPr)]-NH2; lactam N-7), the IC50 in test [1] fell in the range of 50 to 100 nM.
As for `CC(=O)NCCCC[C@@H]1NC(=O)CC[C@H](C(=O)N[C@@H](CCCCNC(C)C)C(N)=O)NC(=O)CNC(=O)[C@H](Cc2ccc3ccccc3c2)NC(=O)[C@@H](CCCNC(=N)N)NC(=O)[C@H](CCCCNC(C)C)NC(=O)[C@H](Cc2ccc(O)cc2)NC1=O` [cyclo[Lys(Ac)-Tyr-Lys(iPr)-D-Arg-2Nal-Gly-D-Glu]-Lys(iPr)] (K(Ac)Y[Lys(iPr)][dR][2Nal]G[dE][Lys(iPr)]-NH2; lactam N-7), in test [1], the IC50 is 1 to 10 nM.
Regarding `CC(C)NCCCC[C@H](NC(=O)[C@H]1CCC(=O)N[C@@H](Cc2ccccc2)C(=O)N[C@H](Cc2ccc(O)cc2)C(=O)N[C@@H](CCCCNC(C)C)C(=O)N[C@H](CCCNC(=N)N)C(=O)N[C@@H](Cc2ccc3ccccc3c2)C(=O)N[C@H](C)C(=O)N1)C(N)=O` [cyclo[Phe-D-Tyr-Lys(iPr)-DArg-2Nal-D-Ala-D-Glu]-Lys(iPr)] (F[dY][Lys(iPr)][dR][2Nal][dA][dE][Lys(iPr)]-NH2; lactam N-7), in test [1], the IC50 lay in the range of 50 to 100 nM.
On to `CC(C)C[C@H]1NC(=O)[C@H](Cc2ccc3ccccc3c2)NC(=O)[C@@H](CCCNC(=N)N)NC(=O)[C@H](CCCCNC(C)C)NC(=O)[C@H](Cc2ccc(O)cc2)NC(=O)[C@H](Cc2ccccc2)NC(=O)CC[C@H](C(=O)N[C@@H](CCCCNC(C)C)C(N)=O)NC1=O` [cyclo[Phe-Tyr-Lys(iPr)-D-Arg-2Nal-D-Leu-D-Glu]-Lys(iPr)] (FY[Lys(iPr)][dR][2Nal][dL][dE][Lys(iPr)]-NH2; lactam N-7), for which the IC50 in test [1] was in the range of 50 to 100 nM.
On to `CC(C)NCCCC[C@H](NC(=O)[C@H]1CCC(=O)N[C@@H](Cc2ccccc2)C(=O)N[C@@H](CCc2ccc(O)cc2)C(=O)N[C@@H](CCCCNC(C)C)C(=O)N[C@H](CCCNC(=N)N)C(=O)N[C@@H](Cc2ccc3ccccc3c2)C(=O)N[C@H](C)C(=O)N1)C(N)=O` [cyclo[Phe-hTyr-Lys(iPr)-D-Arg-2-Nal-D-Ala-D-Glu]-Lys(iPr)] (F[hTyr][Lys(iPr)][dR][2Nal][dA][dE][Lys(iPr)]-NH2; lactam N-7), for which, in test [1], the half-inhibitory concentration (IC50) lay within 50 to 100 nM.
Regarding “cyclo[Phe-Tyr-Lys(iPr)-D-Arg-2-Nal-Gly-D-Glu]-Lys(iPr)-NH2 [LY2510924]”, the “growth of xenograft models” value in test [2] was “able to inhibit growth”. Moreover, the “treatment efficacy of carboplatin/etoposide chemotherapy” value in test [3] was “failed to improve treatment efficacy”. Further, the IC50 in test [4] was 0.079 nM.
